Data reported in patent US20240398836A1, “EPOXY STEROIDS” (priority 2021, published 2024).

How the values were obtained:
Format in all cases: cell-based
[1] = test system: glioblastoma cells (DBTRG05MG cells); experiment: Apoptosis in brain tumor cells
Method: In contrast to conventional glucocorticoids, the steroid WIL 071 can induce apoptosis also in brain tumor cells.
The DNA fragmentation was measured by flow cytometry, see FIG. 9. The experiments were performed in triplicate. The error bars show the standard deviations of the measured values of three independent experiments.

Nalm-6 cells [2] = experiment: Half-maximal apoptosis induction (AC50) in Nalm-6 cells; conditions: Homo sapiens; Nalm-6, 72 h, flow cytometry; read-out: Biological effect: half-maximal apoptosis induction (AC50)
Method: Apoptosis Induction in Nalm-6 Cells after Treatment with WIL-071 or Different Steroid Derivatives.
(§1) The cells were incubated in 6-well plates with 1.0·10^5 cells/mL in two milliliters of medium with the respective steroid derivative in different concentrations. The included solvent control (DMSO) served as a control, which was subtracted from all the other measured values, in order not to take into account the spontaneous apoptosis of the cells that takes place independently of the concentration of active ingredient. After 72 h, a modified cell cycle analysis was performed, in order to quantify the proportion of apoptotic cells by flow cytometry. For each concentration of the steroid, the respective mean values f standard deviations, n=3 (*: p<0.05 vs. DMSO, t test) were determined. Using the curve of the dose-effect relationship (steroid concentration−apoptosis induction) formed from these measured values, the steroid concentration at which apoptosis was triggered in 50% of the tested leukemia cells was read.

[3] = test system: prednisolone-resistant leukemia cells; experiment: Overcoming of prednisolone resistance; conditions: 72 h
Method: as §1
Prednisolone resistance is said to be overcome if the induction of apoptosis in prednisolone-resistant leukemia cells is as high as it is in normal leukemia cells.

[4] = test system: neuroblastoma cells (SKNAS cells), LiOn cells; experiment: Apoptosis in cytostatics-resistant solid tumor cells; conditions: SKNAS cells and cisplatin-resistant LiOn cells (caspase-8 underexpression)
Method: In contrast to conventional glucocorticoids, the steroid WIL 071 can induce apoptosis also in solid tumor cells.
The DNA fragmentation was measured by flow cytometry), see FIG. 8. The experiments were performed in triplicate. The error bars show the standard deviations of the measured values of three independent experiments.

Nalm-6 cells [5] = experiment: Selectivity: apoptosis (DNA fragmentation, flow cytometry) in leukemia cells
Method: WIL 071 acts selectively in malignant cells that are proliferating.
The DNA fragmentation was measured by flow cytometry, see FIG. 7. The experiments were performed in triplicate. The error bars show the standard deviations of the measured values of three independent experiments.

Question: For CC(C)CCC[C@@H](C)[C@H]1CC[C@H]2[C@@H]3[C@H]4OC[C@@]5(CC[C@H](O)C[C@]5(O)C4=O)[C@H]3CC[C@]12C [WIL-071, 3β,5α-dihydroxy-7β,19-epoxy-cholestan-6-one], which “apoptosis induction (DNA fragmentation)” value [1] is on record?
Answer: Its value is “significantly induces apoptosis”.

Question: And the AC50 (Nalm-6 cells [2])?
Answer: The AC50 was 17.2 µM.

Question: What about the EC50 [3] of the same compound?
Answer: The EC50 was 16 µM.

Question: What about the “apoptosis induction / overcoming of cytostatics resistance” value [4] of the same compound?
Answer: The value was “Resistances towards cytostatics are overcome”.

Question: And the “apoptosis induction (DNA fragmentation)” value (Nalm-6 cells [5])?
Answer: The value was “apoptosis is induced in a concentration-dependent way”.
